Where “and” joins values, the source holds several entries; their conditions need not be identical. Equal values may be shown once.
What was measured:
[1] = Pharmacokinetic studies in Cynomolgus monkeys; format: in vivo; settings: for AUC(0-t): animals and MEAN
[2] = Microsomal stability study, negative control incubation; format: in vitro ADME
[3] = Metabolites in rat plasma; format: in vivo; settings: rats, MI-219 i.v. 5 mg/kg
Method: Plasma was harvested by centrifuging the blood at 13000 rpm for 5 min at 4° C. and stored frozen at −80±10° C. until analysis.
Based on the similarities and difference among their mass spectra, the possible fragmentation pathways of protonated MI-219 and several lead compounds were proposed. Three characteristic product ions were selected to generate 240 ion channels for MRM screening by using Metabolite ID software (Applied Biosystems), including 40 common biotransformation processes. To search all the metabolites, two other scan modes, EMS full scan and precursor scan were also conducted. Only the components detected in the sample and absent in all the control samples were regarded as possible metabolites. To identify the possible metabolites, both the sample and controls were injected on the LC-MS for EPI and MS^3 scans to obtain their MS^2 and MS^3 spectra.

SJSA-1 xenograft tumors = settings: mice bearing SJSA-1 xenograft, oral 200-300 mg/kg daily or twice a day, 2 weeks; cited from earlier work
[4] = Pharmacokinetic studies in Beagle dogs; format: in vivo
[5] = male Cynomolgus monkeys, IV (10 mg/kg)
[6] = male Cynomolgus monkeys, IV (10 mg/kg), mean
[7] = male Cynomolgus monkeys, Oral (50 mg/kg)
[8] = male Cynomolgus monkeys, Oral (50 mg/kg), mean

## MI-219
[1]; Cynomolgus Monkeys
  oral bioavailability in monkeys (in words): orally bioavailable
[1]; male Cynomolgus monkeys, IV 10 mg/kg, time point 0.083, animals and Mean
  Plasma Concentration: 15043.60 ng/mL and 18669.25 ng/mL
[1]; male Cynomolgus monkeys, IV 10 mg/kg, time point 0.083, animals and Mean, mean
  Plasma Concentration: 16856.43 ng/mL
[1]; male Cynomolgus monkeys, IV 10 mg/kg, time point 0.1
  Plasma Concentration: 18416.30 ng/mL
[1]; male Cynomolgus monkeys, IV 10 mg/kg, time point 0.25
  Plasma Concentration: 4144.21 ng/mL and 4818.06 ng/mL and 6877.15 ng/mL
[1]; male Cynomolgus monkeys, IV 10 mg/kg, time point 0.25, mean
  Plasma Concentration: 5279.81 ng/mL
[1]; male Cynomolgus monkeys, IV 10 mg/kg, time point 0.5
  Plasma Concentration: 2188.67 ng/mL and 3577.55 ng/mL and 3536.46 ng/mL
[1]; male Cynomolgus monkeys, IV 10 mg/kg, time point 0.5, mean
  Plasma Concentration: 3100.89 ng/mL
[1]; male Cynomolgus monkeys, IV 10 mg/kg, time point 1
  Plasma Concentration: 1564.10 ng/mL and 2277.17 ng/mL and 2483.63 ng/mL
[1]; male Cynomolgus monkeys, IV 10 mg/kg, time point 1, mean
  Plasma Concentration: 2108.30 ng/mL
[1]; male Cynomolgus monkeys, IV 10 mg/kg, time point 2
  Plasma Concentration: 985.23 ng/mL and 1277.08 ng/mL and 1539.44 ng/mL
[1]; male Cynomolgus monkeys, IV 10 mg/kg, time point 2, mean
  Plasma Concentration: 1267.25 ng/mL
[1]; male Cynomolgus monkeys, IV 10 mg/kg, time point 3
  Plasma Concentration: 1230.40 ng/mL and 691.83 ng/mL and 834.00 ng/mL
[1]; male Cynomolgus monkeys, IV 10 mg/kg, time point 3, mean
  Plasma Concentration: 918.74 ng/mL
[1]; male Cynomolgus monkeys, IV 10 mg/kg, time point 4
  Plasma Concentration: 348.97 ng/mL and 582.63 ng/mL and 562.45 ng/mL
[1]; male Cynomolgus monkeys, IV 10 mg/kg, time point 4, mean
  Plasma Concentration: 498.02 ng/mL
[1]; male Cynomolgus monkeys, IV 10 mg/kg, time point 6
  Plasma Concentration: 246.12 ng/mL and 211.39 ng/mL and 324.99 ng/mL
[1]; male Cynomolgus monkeys, IV 10 mg/kg, time point 6, mean
  Plasma Concentration: 260.83 ng/mL
[1]; male Cynomolgus monkeys, IV 10 mg/kg, time point 8
  Plasma Concentration: 180.91 ng/mL and 115.94 ng/mL and 202.16 ng/mL
[1]; male Cynomolgus monkeys, IV 10 mg/kg, time point 8, mean
  Plasma Concentration: 166.34 ng/mL
[1]; male Cynomolgus monkeys, IV 10 mg/kg, time point 24
  Plasma Concentration: 5.91 ng/mL and 8.00 ng/mL and 8.34 ng/mL
[1]; male Cynomolgus monkeys, IV 10 mg/kg, time point 24, mean
  Plasma Concentration: 7.42 ng/mL
[1]; [5]
  AUC(0-∞): 11647.87 ng·h/mL and 13703.99 ng·h/mL and 10300.28 ng·h/mL
  CLz: 14.3 mL/min/kg and 12.2 mL/min/kg and 16.2 mL/min/kg
  Cmax: 18669.25 ng/mL and 18416.30 ng/mL and 15043.60 ng/mL
  MRT(0-∞): 2.12 h and 2.44 h and 2.68 h
  T1/2: 3.25 h and 3.43 h and 3.38 h
  Vz: 4.03 L/kg and 3.62 L/kg and 4.73 L/kg
  AUC(0-t): 11610.30 ng·h/mL and 13662.84 ng·h/mL and 10271.39 ng·h/mL
[1]; [6]
  AUC(0-t): 11848.18 ng·h/mL
  AUC(0-∞): 11884.05 ng·h/mL
  CLz: 14.2 mL/min/kg
  Cmax: 17376.38 ng/mL
  MRT(0-∞): 2.41 h
  T1/2: 3.35 h
  Vz: 4.12 L/kg
[1]; [7]
  MRT(0-∞): 6.25 h and 6.38 h and 5.57 h
  T1/2: 3.03 h and 2.52 h and 3.72 h
  Tmax: 4.00 h and 3.00 h and 3.33 h
[1]; [8]
  MRT(0-∞): 6.06 h
  T1/2: 3.09 h
[1]; male Cynomolgus monkeys, PO 50 mg/kg, time point 1
  Plasma Concentration: 192.53 ng/mL and 186.66 ng/mL and 241.02 ng/mL
[1]; male Cynomolgus monkeys, PO 50 mg/kg, time point 1, mean
  Plasma Concentration: 206.74 ng/mL
[2]; 0 min
  Microsomal stability, % remaining: 100.00%
[2]; 5 min
  Microsomal stability, % remaining: 102.63%
[2]; 10 min
  Microsomal stability, % remaining: 105.25%
[2]; 15 min
  Microsomal stability, % remaining: 109.19%
[2]; 30 min
  Microsomal stability, % remaining: 111.07%
[2]; 45 min
  Microsomal stability, % remaining: 104.13%
[2]; 60 min
  Microsomal stability, % remaining: 109.01%
[3]
  elimination rate from rat plasma (in words): similar
SJSA-1 xenograft tumors
  tumor growth inhibition (in words): effective tumor growth inhibition
[4]
  oral bioavailability in dogs (in words): orally bioavailable
[4]; 10 mg/kg oral dosing
  AUC: 7947 ± 2396 ng·h/mL
[4]; IV 2.0 mg/kg
  MRT: 1.22 h and 1.81 h and 1.87 h
[4]; IV 2.0 mg/kg, 0.117 h, dogs and Mean
  Plasma Concentration: 4069 ng/mL and 7668 ng/mL
[4]; IV 2.0 mg/kg, 0.117 h, dogs and Mean, mean
  Plasma Concentration: 5868 ng/mL
[4]; IV 2.0 mg/kg, 0.20 h
  Plasma Concentration: 2623 ng/mL and 2272 ng/mL and 3918 ng/mL
[4]; IV 2.0 mg/kg, 0.20 h, mean
  Plasma Concentration: 2938 ng/mL
[4]; IV 2.0 mg/kg, 0.5 h
  Plasma Concentration: 1888 ng/mL and 1192 ng/mL and 1795 ng/mL
[4]; IV 2.0 mg/kg, 0.5 h, mean
  Plasma Concentration: 1625 ng/mL
[4]; IV 2.0 mg/kg, 1.0 h
  Plasma Concentration: 853 ng/mL and 704 ng/mL and 1044 ng/mL
[4]; IV 2.0 mg/kg, 1.0 h, mean
  Plasma Concentration: 867 ng/mL
[4]; IV 2.0 mg/kg, 3.0 h
  Plasma Concentration: 331 ng/mL and 402 ng/mL
[4]; IV 2.0 mg/kg, 3.0 h, mean
  Plasma Concentration: 367 ng/mL
[4]; IV 2.0 mg/kg, 4.0 h
  Plasma Concentration: 256 ng/mL and 188 ng/mL and 248 ng/mL
[4]; IV 2.0 mg/kg, 4.0 h, mean
  Plasma Concentration: 231 ng/mL
[4]; IV 2.0 mg/kg, 6.0 h
  Plasma Concentration: 114.3 ng/mL and 81.1 ng/mL and 119 ng/mL
[4]; IV 2.0 mg/kg, 6.0 h, mean
  Plasma Concentration: 105 ng/mL
[4]; IV 2.0 mg/kg, 8.0 h
  Plasma Concentration: 52.2 ng/mL and 39.7 ng/mL and 57.8 ng/mL
[4]; IV 2.0 mg/kg, 8.0 h, mean
  Plasma Concentration: 49.9 ng/mL
[4]; IV 2.0 mg/kg, 12 h
  Plasma Concentration: 17.9 ng/mL and 9.75 ng/mL and 19.4 ng/mL
[4]; IV 2.0 mg/kg, 12 h, mean
  Plasma Concentration: 15.7 ng/mL
[4]; IV 2.0 mg/kg, dogs and Mean
  T½: 4.32 h and 3.00 h and 4.36 h
[4]; IV 2.0 mg/kg, dogs and Mean, mean
  T½: 3.90 h
[4]; IV 2.0 mg/kg, mean
  MRT: 1.63 h
[4]; PO 10 mg/kg
  AUC(0-t): 9665 ng·h/mL and 5210 ng·h/mL and 8967 ng·h/mL
  AUC(0-∞): 9681 ng·h/mL and 5226 ng·h/mL and 8985 ng·h/mL
  Cmax: 3001 ng/mL and 3560 ng/mL and 2119 ng/mL and 3323 ng/mL
  F: 26.1% and 26.8% and 28.6%
  MRT: 3.09 h and 2.71 h and 3.33 h
  Tmax: 0.83 h and 1.0 h and 0.5 h
[4]; PO 10 mg/kg, 0.5 h, dogs and Mean
  Plasma Concentration: 2101 ng/mL and 1842 ng/mL and 3323 ng/mL
[4]; PO 10 mg/kg, 0.5 h, dogs and Mean, mean
  Plasma Concentration: 2422 ng/mL
[4]; PO 10 mg/kg, 1 h
  Plasma Concentration: 3560 ng/mL and 2119 ng/mL and 2999 ng/mL
[4]; PO 10 mg/kg, 1 h, mean
  Plasma Concentration: 2893 ng/mL
[4]; PO 10 mg/kg, 4 h
  Plasma Concentration: 483 ng/mL and 603 ng/mL and 312 ng/mL and 535 ng/mL
[4]; PO 10 mg/kg, 24 h
  Plasma Concentration: 4.05 ng/mL and 3.78 ng/mL and 4.48 ng/mL
[4]; PO 10 mg/kg, 24 h, mean
  Plasma Concentration: 4.10 ng/mL
[4]; PO 10 mg/kg, dogs and Mean
  T½: 2.77 h and 3.03 h and 2.81 h
[4]; PO 10 mg/kg, dogs and Mean, mean
  T½: 2.87 h
[4]; PO 10 mg/kg, mean
  AUC(0-t): 7947 ng·h/mL
  AUC(0-∞): 7964 ng·h/mL
  MRT: 3.04 h
